Data reported in patent publication EP1192182B1, “PITUITARY ADENYLATE CYCLASE ACTIVATING PEPTIDE (PACAP) RECEPTOR 3 (R3) AGONISTS AND THEIR PHARMACOLOGICAL METHODS OF USE” (priority 1999, dated 2001).
pEC50: −log10 of the molar value. Starred links: 1 amine or outer side, 2 acyl side, 3 side chain; linkers in the order of their positions; H or OH if unused. Non-standard residues stand in square brackets, D forms with d. Residues, ends and D or L forms follow the SMILES beside them. No end group written: not given here. Tyr(Me) = O-methyl-Tyr (CH3O-Y), COc1ccc(C[C@H](N[*:1])C(=O)[*:2])cc1; Nle = CCCC[C@H](N)C(=O)O

How the values were obtained:
[1] = in vivo; cited from earlier work
[2] = Intraperitoneal glucose tolerance test (IPGTT), plasma glucose; format: in vivo, Wistar rats; settings: for glucose disposal in the rat: 1 nmole/kg dose, subcutaneous route, FIG. 7 legend; for Plasma Glucose (% of Basal) i.v.: 1 nmol/kg peptide i.v.
Experimental: Wistar rats are fasted overnight and then anesthetized with pentobarbital. The rats were eye-bled (zero time) and the peptide ( in 1% human albumin) was injected into the tail vein. Five minutes later, 1 g/kg of glucose (in saline) was injected intraperitoneally, and the rats were eye-bled after 15, 30 and 60 minutes. Plasma glucose levels were determined using the Technicon Axon autoanalyzer, Bayer Diagnosics division of Bayer Corporation, Tarrytown NY, operated using Method No. SM4-2143F90 "Glucose".
(§1) In accordance with the protocol of example 2 above, overnight fasted Wistar rats were anesthetized with pentobarital; i.v. injected with glucose ± peptide and eye bled after 1 minute. N=12 rats/group. […] The peptide or vehicle was given i.v. followed by a glucose load given i.p. in accordance with example 3. The plasma glucose was followed over the time period indicated.
Wistar rats were fasted overnight and then anesthetized with Pentobarbital. The rats were eye-bled (zero time) and the peptide (in 1 % human albumin) was injected subcutaneously. Five minutes later, 1 g/kg of glucose (in saline) was injected intraperitoneally, and the rats were eye-bled after 30 minutes.
Plasma glucose: Data are expressed as % of vehicle of plasma glucose area under the curve after IPGTT (1 g/kg glucose) after treatment with 1 nmol/kg dose of the peptide. […] The present Inventors have shown for the first time that this is because the effects of R2 and R3 on glucose tend to cancel each other out. […] Therefore, R3-selectlvlty appears to be a desirable attribute for medicaments which are to be employed in achieving blood glucose reduction, for treatment of type 2 diabetes.

[3] = Peptide-induced elevation of plasma insulin after IVGTT; format: in vivo; settings: one minute after IVGTT (0.4g/kg glucose), 1 nmole/kg peptide i.v., Wistar rats
Experimental: Wistar rats are fasted overnight (17 hrs) and then anesthetized with pentobarbital (0.1 ml/100 g BW). Glucose (0.4 g/kg dissolved in 1% human albumin-saline) +/- peptide (dissolved in 1% human albumin-saline) is injected intravenously into the tail vein. The rats are eye-bled 1 minute after the injection and 50-100ul of the plasma are assayed for insulin level with the Linco RIA kit (Linco Research, Inc., St. Charles, MO).
as §1
Plasma insulin: Data are expressed as % of plasma insulin one minute after IVGTT (0.4g/kg glucose) with either saline, 0.1nmol/kg P51, P55, P60, P66 or 1 nmole/kg of the other peptides including peptides which are not part of the present invention in Wistar rats. Blood was drawn from the eye and insulin was measured with the rat insulin RIA kit (Linco Research, Inc, St. Charles, MO).

rat islets = assay: Insulin release from isolated rat islets; format: cell-based, Sprague-Dawley rats; settings: peptide 10nM for 2hrs, 8mM glucose; % of [insulin] in 8mM glucose alone
Experimental: Sprague Dawley rats (275-320 g) were used as the source of donor islets. Briefly, the pancreas was filled with 10 ml of cold reconstituted Liberase RI (Boehringer Manheim), harvested and incubated with additional 5 ml enzyme solution in water bath for 30 minutes. Tissue suspension was washed twice with cold 10% FBS/Hanks buffer (Gibco), resuspended in 8 ml 25% ficoll (Sigma) and then layered with 5 ml each of 23%, 20% and 11 % ficoll. The islets in the 20% layer after centrifugation were removed, washed twice with cold 10% FBS/Hank buffer and resuspended in 10% FBS/RPMI 1640 media (Sigma).
Islet insulin release: Rat islets were isolated from Sprague-Dawley rats as described in example 1 and treated with either vehicle or specified peptide (10nM) for 2hrs. Insulin concentration in the medium was measured with the Linco rat insulin RIA kit. Glucose concentration in the medium was 8mM. The data are expressed as % of [insulin] in 8mM glucose alone. No polypeptide-induced Increases in insulin concentration were observed al 3 mM glucose; thus, the insulin releasing activity of these polypeptides are glucose-dependent. It should be noted that the following Table includes data for polypeptides which are not part of the present invention.

PACAP-R2 = biological target: T1, PACAP-R2 (Homo sapiens, UniProt P32241); assay: Cyclic AMP SPA on CHO cells transfected with PACAP-R2; format: cell-based; settings: cAMP SPA, EC50 = concentration at which 50% of maximum PACAP27 activity is achieved, NA = no detectable activities
T1 construct: expressed in transfected cells; host or cells: CHO cells
T1 sequence (P32241 31-457): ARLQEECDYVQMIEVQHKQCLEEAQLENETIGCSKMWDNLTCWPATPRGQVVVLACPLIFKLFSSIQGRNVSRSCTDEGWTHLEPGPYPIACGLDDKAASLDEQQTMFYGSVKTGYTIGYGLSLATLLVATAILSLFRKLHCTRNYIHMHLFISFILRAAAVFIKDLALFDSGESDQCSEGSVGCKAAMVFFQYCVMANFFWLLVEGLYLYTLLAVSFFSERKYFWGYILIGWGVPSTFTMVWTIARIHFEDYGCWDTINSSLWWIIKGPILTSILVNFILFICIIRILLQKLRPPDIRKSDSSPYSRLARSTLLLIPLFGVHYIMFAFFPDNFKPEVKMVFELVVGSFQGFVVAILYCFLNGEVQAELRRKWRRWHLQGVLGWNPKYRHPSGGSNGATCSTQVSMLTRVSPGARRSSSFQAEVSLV
Experimental: (§2) CHO cells expressing the PACAP R3 were plated in 96-well plates (Costar) at 8 x 10^4 cell/well and grown at 37C for 24 hours in a MEM + nucleosides + glutamine (Giobco BRL), 10% FBS, 100 µg/ml Pen/Strep, 0.3 mg/ml glutamine, 1 mM HEPES, 0.5 mg/ml Geneticin (Gibco BRL). The media was removed and the plates were washed with PBS. The cells were incubated with a peptide, in Hepes-PBS-BSA with 0.4mg/mlSoybean Trypsin inhibitor, 0.5 mg/ml Bacitracin, 100uM IBMX, for 15 min at 37 C. Cyclic AMP in the ceii extracts was quantitated using the cAMP SPA direct screening assay system (Amersham Pharmacia Biotech Inc, Piscataway, NJ,). The peptides shown in Table 3 were assayed for cAMP activity.
(§3) EC50 is defined as the concentration of the polypeptide at which 50% of maximum PACAP27 activity is achieved. "NA" denotes no detectable activities. "R3 Selectivity" is derived from the ratio of EC50 at R2 versus EC50 at R3. […]

PACAP-R3 [4] = biological target: T2, PACAP-R3 (Homo sapiens, UniProt P41587); assay: Cyclic AMP SPA on CHO cells expressing PACAP R3; format: cell-based; design: expressed in transfected cells; host or cells: CHO cells; settings: cAMP SPA, CHO cells transfected with PACAP-R3; EC50 = concentration at which 50% of maximum PACAP27 activity is achieved; NA = no detectable activities
T2 sequence (P41587 24-438): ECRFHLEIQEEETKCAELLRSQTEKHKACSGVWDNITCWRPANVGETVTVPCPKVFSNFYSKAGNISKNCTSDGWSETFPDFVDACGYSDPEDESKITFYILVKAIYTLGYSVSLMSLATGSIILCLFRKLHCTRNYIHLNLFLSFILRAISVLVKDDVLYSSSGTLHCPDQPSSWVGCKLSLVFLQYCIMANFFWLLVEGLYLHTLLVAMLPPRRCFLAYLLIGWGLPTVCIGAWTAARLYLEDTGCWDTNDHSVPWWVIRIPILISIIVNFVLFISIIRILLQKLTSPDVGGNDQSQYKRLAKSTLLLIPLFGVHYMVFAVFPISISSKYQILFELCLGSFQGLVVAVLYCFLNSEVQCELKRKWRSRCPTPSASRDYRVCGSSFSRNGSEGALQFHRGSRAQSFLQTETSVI
Experimental: as §2, §3

PACAP-R3 [5] = biological target: T2, PACAP-R3; settings: literature; cited from earlier work
[6] = Heart rate in conscious dogs; settings: i.v., AUC of first 10 minutes of heart rate change
Experimental: Beagle dogs were put into a sling where they have been trained to stand for up to 3 hours. The cuff of the heart rate monitor was placed around the tail of the dog.
Saline was injected into the cephalic vein and heart rate monitored every 2 minutes to establish a baseline. After 10 minutes, peptide, including peptides which are not part of the invention, was injected and heart rate monitored every 2 minutes for the next 20 minutes. If heart rate was normal at that time, a higher dose was given and heart rate monitored for 20 minutes.

[7] = plasma glucose area under the curve after IPGTT (1 g/kg glucose), % of vehicle

HAEGTFTSDV SSYLEGQAAK EFIAWLKGR-NH2 [GLP-1]
plasma half-life [1]: a few minutes | glucose disposal in the rat [2]: enhance glucose disposal

Ac-HSDAVFTENYTKLRKQLAAKKYLNDLKKGGT-NH2 [Peptide R3P1]
Plasma Insulin (% of Basal) [3]: 480 % of Basal | Islet Insulin Release (% of Basal) (rat islets): 250 % of Basal | Plasma Glucose (% of Basal) i.v. [2, 7]: 73 % of Basal

CC[C@H](C)[C@H](NC(=O)CNC(=O)[C@H](CC(=O)O)NC(=O)[C@H](CO)NC(=O)[C@@H](N)Cc1c[nH]cn1)C(=O)N[C@@H](Cc1ccccc1)C(=O)N[C@H](C(=O)N[C@@H](CC(=O)O)C(=O)N[C@@H](CO)C(=O)N[C@@H](CCCCN)C(=O)N[C@@H](CO)C(=O)N[C@@H](CCCNC(=N)N)C(=O)N[C@@H](Cc1ccc(O)cc1)C(=O)N[C@@H](CCCNC(=N)N)C(=O)N[C@@H](CCCCN)C(=O)N[C@@H](CCC(N)=O)C(=O)N[C@@H](CCSC)C(=O)N[C@@H](C)C(=O)N[C@H](C(=O)N[C@@H](CCCCN)C(=O)N[C@@H](CCCCN)C(=O)N[C@@H](Cc1ccc(O)cc1)C(=O)N[C@@H](CC(C)C)C(=O)N[C@@H](C)C(=O)N[C@@H](C)C(=O)N[C@H](C(=O)N[C@@H](CC(C)C)C(N)=O)C(C)C)C(C)C)[C@@H](C)O [PAC10]
pEC50 (PACAP-R2): 6.96 | pEC50 (PACAP-R3 [4]): 7.57

HSDGIFTDSYSRYRKQLAAKKYLADVKK [Peptide R3P38]
pEC50 (PACAP-R2): 7.77 | pEC50 (PACAP-R3 [4]): 8.64

HSDAVFTDNYTRLRKQLAAKKYLNDIKK-NH2 [Peptide R3P13]
Plasma Insulin (% of Basal) [3]: 465 % of Basal | Islet Insulin Release (% of Basal) (rat islets): 170 % of Basal | glucose disposal in the rat [2]: enhance glucose disposal | elevation of plasma glucose 30 minutes after IPGTT ([2]; 1 nmole/kg s.c., vehicle: 160 mg/dl above basal, Figure 7): significantly reduced | Plasma Glucose (% of Basal) s.c. ([2]; plasma glucose area under the curve after IPGTT (1 g/kg glucose), % of vehicle, 1 nmol/kg peptide s.c.): 77 % of Basal

CC(C)C[C@H](NC(=O)[C@H](CCC(N)=O)NC(=O)[C@H](CCCCN)NC(=O)[C@H](CCCNC(=N)N)NC(=O)[C@H](CC(C)C)NC(=O)[C@H](CCCCN)NC(=O)[C@@H](NC(=O)[C@H](Cc1ccc(O)cc1)NC(=O)[C@H](CC(N)=O)NC(=O)[C@H](CCC(=O)O)NC(=O)[C@@H](NC(=O)[C@H](Cc1ccccc1)NC(=O)[C@@H](NC(=O)[C@H](C)NC(=O)[C@H](CC(=O)O)NC(=O)[C@H](CO)NC(=O)[C@@H](N)Cc1c[nH]cn1)C(C)C)[C@@H](C)O)[C@@H](C)O)C(=O)N[C@@H](C)C(=O)N[C@@H](C)C(=O)N[C@@H](CCCCN)C(=O)N[C@@H](CCCCN)C(=O)N[C@@H](Cc1ccc(O)cc1)C(=O)N[C@@H](CC(C)C)C(=O)N[C@@H](CC(N)=O)C(=O)N[C@@H](CC(=O)O)C(=O)N[C@@H](CC(C)C)C(=O)N[C@@H](CCCCN)C(=O)N[C@@H](CCCCN)C(=O)NCC(=O)NCC(=O)N[C@H](C(=O)N[C@@H](CO)C(=O)N[C@@H](Cc1c[nH]c2ccccc12)C(=O)N[C@@H](CS)C(=O)N[C@@H](CCC(=O)O)C(=O)N1CCC[C@H]1C(=O)NCC(=O)N[C@@H](Cc1c[nH]c2ccccc12)C(=O)N[C@@H](CS)C(=O)N[C@@H](CCCNC(=N)N)C(=O)O)[C@@H](C)O [Peptide R3P19] (H-HSDAVFTENYTKLRKQLAAKKYLNDLKKGGTSWCEPGWCR-OH; C-terminus assumed)
Plasma Insulin (% of Basal) [3]: 285 % of Basal

Ac-HSDAVFTEN(CH3O-Y)TKLRKQNIeAAKKYLNDLKK-NH2 (Ac-HSDAVFTEN[Tyr(Me)]TKLRKQ[Nle]AAKKYLNDLKK-NH2) [Peptide R3P4]
PACAP-R3 selectivity (PACAP-R3 [5]): greater than 100 fold

[K15, R16, L27]VIP(1-7)/GRF(8-27) [Peptide R2P1]
Plasma Insulin (% of Basal) [3]: 216 % of Basal | potency in heart rate increase, fold less potent than PACAP27 or maxadilan [6]: at least 10 fold | increases plasma glucose level ([2]; IPGTT, 1 nmol/kg): 14% | Plasma Glucose (% of Basal) i.v. [2, 7]: 114 % of Basal
